Test results taken from US20260234144A1 (TAY THERAPEUTICS LIMITED, priority 2023, published 2026).

System: R223X stop codon in the mutated luciferase gene, ADXC8 luciferase reporter cell line
Assay: cells
Type: cell-based
Settings: 24 h, ADXC8 cells, 24 hours; for Emax: read-out: Fold Over Control, maximum fold response relative to 200 μM G418; for EC (100% of 200 uM G418 response): read-out: pC100%, negative logarithm of the concentration giving the same response as 200 μM G418

SMILES	Emax	EC (100% of 200 uM G418 response)
CNc1nc(N[C@H]2CNC[C@H]2OC)nc2nc(C)cc(C)c12 [Example 370]	100 to 3000%	1 to 10 µM
CNc1nc(N[C@H]2C[C@@H](C)N(C)C2)nc2nc(C)cc(C)c12 [Example 371]	100 to 3000%	10 to 100 µM
CNc1nc(N[C@@H]2CN[C@H](C)C2)nc2nc(C)cc(C)c12 [Example 372]	100 to 3000%	10 to 100 µM
CNc1nc(N[C@H]2C[C@H](C)N(C)C2)nc2nc(C)cc(C)c12 [Example 373]	100 to 3000%	1 to 10 µM
CNc1nc(N[C@@H]2CN[C@@H](C)C2)nc2nc(C)cc(C)c12 [Example 374]	100 to 3000%	10 to 100 µM
CNc1nc(N[C@@H]2C[C@@H](C)N(C)C2)nc2nc(C)cc(C)c12 [Example 375]	100 to 3000%	0.1 to 1 µM
CNc1nc(N[C@H]2CN[C@H](C)C2)nc2nc(C)cc(C)c12 [Example 376]		0.1 to 1 µM
CNc1nc(N[C@@H]2CN(C)C[C@@H]2C)nc2nc(C)cc(C)c12 [Example 377]	100 to 3000%	1 to 10 µM
CNc1nc(N[C@@H]2CN(C)C[C@H]2C)nc2nc(C)cc(C)c12 [Example 378]	100 to 3000%	1 to 10 µM
CNc1nc(N[C@H]2CN(C)C[C@H]2C)nc2nc(C)cc(C)c12 [Example 379]	100 to 3000%	1 to 10 µM
CNc1nc(N[C@H]2CNC[C@H]2C)nc2nc(C)cc(C)c12 [Example 380]	100 to 3000%	1 to 10 µM
CNc1nc(N[C@H]2CN(C)C[C@@H]2C)nc2nc(C)cc(C)c12 [Example 381]	100 to 3000%	1 to 10 µM
CNc1nc(N[C@H]2CNC[C@@H]2C)nc2nc(C)cc(C)c12 [Example 382]	100 to 3000%	1 to 10 µM
CNc1nc(NC2C[C@@H]3CCC2N3)nc2nc(C)cc(C)c12 (stereo partly shown) [Example 383]		1 to 10 µM
CNc1nc(N[C@H]2CCCN(C)C2)nc2nc(C)cc(C)c12 [Example 384]	100 to 3000%	1 to 10 µM
CNc1nc(N[C@@H]2CCCN(C)C2)nc2nc(C)cc(C)c12 [Example 385]		0.1 to 1 µM
CNc1nc(N[C@H]2CCCN(C)CC2)nc2nc(C)cc(C)c12 [Example 386]	100 to 3000%	1 to 10 µM
CNc1nc(N[C@H]2CCCNCC2)nc2nc(C)cc(C)c12 [Example 387]	100 to 3000%	1 to 10 µM
CNc1nc(N[C@]2(C)CCN(C)C2)nc2nc(C)cc(C)c12 [Example 388]	0 to 100%	> 31.6 µM
Cc1cc(C)c2c(NCC(F)(F)F)nc(N[C@@H]3CCN(C)C3)nc2n1 [Example 389]	100 to 3000%	10 to 100 µM
CCCNc1nc(N[C@@H]2CCN(C)C2)nc2nc(C)cc(C)c12 [Example 390]	100 to 3000%	1 to 10 µM
CCNc1nc(N[C@H]2CN(C)C[C@@H]2O)nc2nc(C)cc(C)c12 [Example 391]	100 to 3000%	0.1 to 1 µM
CCNc1nc(N[C@H]2CNC[C@@H]2O)nc2nc(C)cc(C)c12 [Example 392]		1 to 10 µM

SMILES	Emax	EC (100% of 200 uM G418 response)
CCNc1nc(N[C@H]2CN(C)C[C@@H]2F)nc2nc(C)cc(C)c12 [Example 393]	100 to 3000%	1 to 10 µM
CCNc1nc(N[C@H]2CNC[C@@H]2F)nc2nc(C)cc(C)c12 [Example 394]		1 to 10 µM
CCNc1nc(N[C@H]2CN(C)C[C@H]2F)nc2nc(C)cc(C)c12 [Example 395]		1 to 10 µM
C=C(C)c1cnc2nc(NC3CCN(C)CC3)nc(N)c2c1 [Example 397]	100 to 3000%	1 to 10 µM
Cc1cc(C)c2c(N)nc(N[C@@H]3CN4CCC3CC4)nc2n1 [Example 398]	0 to 100%	> 31.6 µM
CNc1nc(N[C@@H]2CCCN(Cc3ccccc3)C2)nc2nc(C)cc(C)c12 [Example 399]	100 to 3000%	1 to 10 µM
CNc1nc(N[C@@H]2CCCN(C)CC2)nc2nc(C)cc(C)c12 [Example 401]	100 to 3000%	1 to 10 µM
CNc1nc(N[C@@H]2CCCNCC2)nc2nc(C)cc(C)c12 [Example 402]		1 to 10 µM
CNc1nc(N[C@H]2CNCC23CC3)nc2nc(C)cc(C)c12 [Example 403]		1 to 10 µM
CNc1nc(NCC2CN3CCC2C3)nc2nc(C)cc(C)c12 (stereo not shown) [Example 404]	0 to 100%	> 31.6 µM
CNc1nc(NCC23CCC[C@H]2N(C)CC3)nc2nc(C)cc(C)c12 (stereo partly shown) [Example 405]	100 to 3000%	1 to 10 µM
CNc1nc(N[C@H]2CN[C@@H](COC)C2)nc2nc(C)cc(C)c12 [Example 406]		1 to 10 µM
CNc1nc(N[C@H]2CN[C@H](C(F)F)C2)nc2nc(C)cc(C)c12 [Example 407]		1 to 10 µM
CNc1nc(NC2CN(C)CC23CC3)nc2nc(C)cc(C)c12 (stereo not shown) [Example 408]		1 to 10 µM
CNc1nc(NC2CCN(C)C2(C)C)nc2nc(C)cc(C)c12 (stereo not shown) [Example 409]	100 to 3000%	1 to 10 µM
CNc1nc(NC2CNCC23COC3)nc2nc(C)cc(C)c12 (stereo not shown) [Example 410]	0 to 100%	> 31.6 µM
CNc1nc(N[C@H]2CN[C@@H](CO)C2)nc2nc(C)cc(C)c12 [Example 411]		1 to 10 µM
CNc1nc(NC2CC[C@H]2N(C)C)nc2nc(C)cc(C)c12 (stereo partly shown) [Example 412]		1 to 10 µM
CNc1nc(N[C@H]2CN[C@H](CF)C2)nc2nc(C)cc(C)c12 [Example 413]		0.1 to 1 µM
CNc1nc(N[C@H]2CN[C@H](COC)C2)nc2nc(C)cc(C)c12 [Example 414]		1 to 10 µM
CNc1nc(N[C@H]2CN[C@H](CO)C2)nc2nc(C)cc(C)c12 [Example 415]		1 to 10 µM
CNc1nc(NC23CCCN(CC2)C3)nc2nc(C)cc(C)c12 (stereo not shown) [Example 416]	0 to 100%	> 31.6 µM
CNc1nc(N[C@H]2CNC[C@@H]2C(F)(F)F)nc2nc(C)cc(C)c12 [Example 417]		1 to 10 µM

SMILES	Emax	EC (100% of 200 uM G418 response)
CNc1nc(N[C@H]2CNC[C@H]2CO)nc2nc(C)cc(C)c12 [Example 418]		1 to 10 µM
CCNc1nc(N[C@@]23CNC[C@@H]2C3)nc2nc(C)cc(C)c12 [Example 419]		0.1 to 1 µM
CNc1cc(N[C@H]2CN(C)C[C@@H]2OC)nc2nc3c(c(C)c12)CCC3 [Example 421]	100 to 3000%	0.1 to 1 µM
CNc1cc(N[C@H]2CN(C)C[C@H]2OC)nc2nc3c(c(C)c12)CCC3 [Example 424]	100 to 3000%	0.1 to 1 µM
CNc1cc(N[C@H]2CN(C)C[C@@H]2O)nc2nc3c(c(C)c12)CCC3 [Example 425, (3S,4S)-1-methyl-4-((5-methyl-4-(methylamino)-7,8-dihydro-6H-cyclopenta[b][1,8]naphthyridin-2-yl)amino)pyrrolidin-3-ol]		0.1 to 1 µM
COc1ccccc1CN1CCC(Nc2nc(N)c3c(C)cc(C)nc3n2)CC1 [Example 426, N^2-(1-(2-methoxybenzyl)piperidin-4-yl)-5,7-dimethylpyrido[2,3-d]pyrimidine-2,4-diamine]	100 to 3000%	1 to 10 µM
CNc1nc(NC2CCN3CCCC23)nc2nc(C)cc(C)c12 (stereo not shown) [Example 439]	0 to 100%	> 31.6 µM
CNc1nc(N[C@H]2C3CC[C@@H]2NC3)nc2nc(C)cc(C)c12 [Example 444]	100 to 3000%	10 to 100 µM
CNc1nc(NC2CN3CCC2C3)nc2nc(C)cc(C)c12 (stereo not shown) [Example 449]	0 to 100%	> 31.6 µM
Cc1cc(C)c2c(N)nc(NC3CCN(CC4CCC4)CC3)nc2n1 [Example 454]	100 to 3000%	1 to 10 µM
COCc1ccccc1CN1CCC(Nc2nc(N)c3c(C)cc(C)nc3n2)CC1 [Example 455]	100 to 3000%	1 to 10 µM
Cc1cc(C)c2c(N)nc(NC3CCN(Cc4ccc(C(F)(F)F)cc4)CC3)nc2n1 [Example 456]	100 to 3000%	1 to 10 µM
Cc1cc(C)c2c(N)nc(NC3CCN(Cc4ccc(F)cc4)CC3)nc2n1 [Example 457]	100 to 3000%	0.1 to 1 µM
CC(=O)Nc1ccc(CN2CCC(Nc3nc(N)c4c(C)cc(C)nc4n3)CC2)cc1 [Example 458]	100 to 3000%	10 to 100 µM
Cc1cc(C)c2c(N)nc(NC3CCN(Cc4cncs4)CC3)nc2n1 [Example 459]	100 to 3000%	1 to 10 µM
Cc1cc(C)c2c(N)nc(NC3CCN(Cc4ccc(O)cc4)CC3)nc2n1 [Example 460]	100 to 3000%	1 to 10 µM
Cc1cc(C)c2c(N)nc(NC3CCN(Cc4cscn4)CC3)nc2n1 [Example 461]	100 to 3000%	1 to 10 µM
Cc1cc(C)c2c(N)nc(NC3CCN(Cc4cccc(C(=O)N(C)C)c4)CC3)nc2n1 [Example 462]	0 to 100%	> 31.6 µM
Cc1cc(C)c2c(N)nc(NC3CCN(Cc4nccs4)CC3)nc2n1 [Example 463]	100 to 3000%	1 to 10 µM
COCc1cccc(CN2CCC(Nc3nc(N)c4c(C)cc(C)nc4n3)CC2)c1 [Example 464]	100 to 3000%	10 to 100 µM
Cc1cc(C)c2c(N)nc(NC3CCN(Cc4ccccc4F)CC3)nc2n1 [Example 465]	100 to 3000%	1 to 10 µM
Cc1cc(C)c2c(N)nc(NC3CCN(Cc4cccc(F)c4)CC3)nc2n1 [Example 466]	100 to 3000%	1 to 10 µM
Cc1cc(C)c2c(N)nc(NC3CCN(Cc4ccns4)CC3)nc2n1 [Example 467]	100 to 3000%	1 to 10 µM
